Legend:
Conditions in all cases: 72 h
U2OS [1] = test: drug sensitivity score (DSS) for viability; higher = more toxic; extreme values may be limits of the assay
Vero E6 [2] = test: as above
Caco-2 [3] = test: as above
Calu-3 [4] = test: as above
HepG2 [5] = test: as above
U2OS [6] = test: cell viability relative to DMSO; higher = less toxic
Vero E6 [7] = test: as above
Caco-2 [8] = test: as above
Calu-3 [9] = test: as above
HepG2 [10] = test: as above
U2OS [11] = test: relative viability EC50 (midpoint between 100% and the lowest measured viability); higher = less toxic
Vero E6 [12] = test: as above
Caco-2 [13] = test: as above
Calu-3 [14] = test: as above
HepG2 [15] = test: as above

Row | Compound | drug sensitivity score (U2OS [1]) | drug sensitivity score (Vero E6 [2]) | drug sensitivity score (Caco-2 [3]) | drug sensitivity score (Calu-3 [4]) | drug sensitivity score (HepG2 [5]) | cell viability (U2OS [6]; 1 nM) [%] | cell viability (U2OS [6]; 10 nM) [%] | cell viability (U2OS [6]; 100 nM) [%] | cell viability (U2OS [6]; 1000 nM) [%] | cell viability (U2OS [6]; 10000 nM) [%] | cell viability (Vero E6 [7]; 1 nM) [%] | cell viability (Vero E6 [7]; 10 nM) [%] | cell viability (Vero E6 [7]; 100 nM) [%] | cell viability (Vero E6 [7]; 1000 nM) [%] | cell viability (Vero E6 [7]; 10000 nM) [%] | cell viability (Caco-2 [8]; 1 nM) [%] | cell viability (Caco-2 [8]; 10 nM) [%] | cell viability (Caco-2 [8]; 100 nM) [%] | cell viability (Caco-2 [8]; 1000 nM) [%] | cell viability (Caco-2 [8]; 10000 nM) [%] | cell viability (Calu-3 [9]; 1 nM) [%] | cell viability (Calu-3 [9]; 10 nM) [%] | cell viability (Calu-3 [9]; 100 nM) [%] | cell viability (Calu-3 [9]; 1000 nM) [%] | cell viability (Calu-3 [9]; 10000 nM) [%] | cell viability (HepG2 [10]; 1 nM) [%] | cell viability (HepG2 [10]; 10 nM) [%] | cell viability (HepG2 [10]; 100 nM) [%] | cell viability (HepG2 [10]; 1000 nM) [%] | cell viability (HepG2 [10]; 10000 nM) [%] | relative viability EC50 (U2OS [11]) [µM] | relative viability EC50 (Vero E6 [12]) [µM] | relative viability EC50 (Caco-2 [13]) [µM] | relative viability EC50 (Calu-3 [14]) [µM] | relative viability EC50 (HepG2 [15]) [µM]
1 | CC(C)N1Cc2cc(S(C)(=O)=O)ccc2N(CCN2CC=C(c3c[nH]c4cc(F)ccc34)CC2)S1(=O)=O | 0 | 0 | 0 | 0 | 0 | 99.9 | 99.1 | 103 | 95.8 | 95.2 | 89.6 | 97.7 | 94.1 | 94.7 | 97.6 | 98.3 | 98.8 | 102 | 91.2 | 104 | 98.6 | 99.3 | 92.7 | 107 | 110 | 99.9 | 107 | 95.8 | 105 | 100 | > 10 | > 10 | > 10 | > 10 | > 10
2 | CC(C)n1cnc2c(C(=O)N[C@H]3CN4CCC3CC4)cc(Cl)cc21 | 0 | 0 | 0 | 0 | 0 | 104 | 103 | 97.1 | 105 | 97.8 | 100 | 95.8 | 97.5 | 94.9 | 100 | 106 | 106 | 94.4 | 101 | 94.9 | 93.9 | 101 | 84.9 | 92.9 | 90.6 | 116 | 102 | 104 | 98.2 | 97.6 | > 10 | > 10 | > 10 | > 10 | > 10
3 | CCOc1ccc(-c2ccc(Cn3c(CC(C)(C)C(=O)O)c(SC(C)(C)C)c4cc(OCc5ccc(C)cn5)ccc43)cc2)cn1 | 1 | 1.3 | 0 | 0 | 1 | 100 | 106 | 96.6 | 97.8 | 78.2 | 98.6 | 95.4 | 90.1 | 94 | 76.1 | 98.4 | 98.8 | 105 | 103 | 88.9 | 107 | 105 | 111 | 112 | 99.9 | 104 | 104 | 102 | 86.2 | 95.7 | > 10 | > 10 | > 10 | > 10 | > 10
4 | CN1CCc2cc(Cl)c(O)cc2[C@@H](c2ccccc2)C1 | 0 | 0 | 0 | 0 | 0 | 97.5 | 100 | 97.8 | 102 | 101 | 95.6 | 95 | 93.5 | 85.1 | 102 | 96.3 | 93.2 | 96.3 | 100 | 99.1 | 93.3 | 103 | 145 | 103 | 97.9 | 98.2 | 96.3 | 97.2 | 97.4 | 89.9 | > 10 | > 10 | > 10 | > 10 | > 10
5 | COc1ccc(-c2cc3c(C)nc(N)nc3n([C@H]3CC[C@H](OCCO)CC3)c2=O)cn1 | 14.2 | 16 | 17.2 | 20.8 | 15.9 | 100 | 95 | 89.1 | 32.6 | 3.8 | 94 | 98.4 | 74.4 | 30 | 17 | 92.5 | 89.9 | 67.1 | 27.7 | 23.4 | 85.3 | 87.3 | 56 | 19.6 | 10 | 104 | 103 | 77.5 | 28.7 | 20.1 | 0.504 | 0.21 | 0.114 | 0.0917 | 0.202
6 | COc1cccc(OC)c1-c1ccc(C[C@H](NC(=O)c2c(Cl)cccc2Cl)C(=O)O)cc1 | 0 | 0 | 0 | 0 | 0 | 103 | 96.5 | 98.5 | 97.8 | 93.4 | 92.2 | 96.2 | 91.8 | 99.9 | 107 | 85.9 | 90.1 | 97.6 | 94.4 | 108 | 104 | 90.9 | 105 | 96.9 | 108 | 91.7 | 104 | 91 | 99.5 | 99.3 | > 10 | > 10 | > 10 | > 10 | > 10
7 | COc1ccccc1NC(=O)OCC1CCN(C(=O)OC(C)(C)C)CC1 | 0 | 0 | 0 | 0 | 0 | 96.8 | 99 | 94.4 | 99.1 | 94.7 | 97.4 | 102 | 99.8 | 99.2 | 95.2 | 89.2 | 96.2 | 101 | 97.9 | 97.9 | 108 | 102 | 94.5 | 109 | 108 | 111 | 108 | 100 | 94.5 | 104 | > 10 | > 10 | > 10 | > 10 | > 10
8 | C[C@H](NC(=O)Cc1cc(F)cc(F)c1)C(=O)N[C@@H]1C(=O)N(C)c2ccccc2-c2ccccc21 | 0 | 0 | 0 | 0 | 0 | 94.8 | 96.8 | 90.9 | 91.5 | 93.1 | 100 | 98.7 | 97.1 | 102 | 109 | 89.5 | 88.6 | 93.1 | 94.3 | 96.7 | 106 | 89.5 | 90.6 | 97 | 94.9 | 112 | 95.7 | 102 | 98.2 | 98.6 | > 10 | > 10 | > 10 | > 10 | > 10
9 | Cc1c(CC(C)(C)C(=O)O)n(Cc2ccc(Cl)cc2)c2ccc(F)cc12 | 0 | 0 | 0 | 0 | 0 | 98.7 | 99.4 | 103 | 96.4 | 99.7 | 98.3 | 97.5 | 95.2 | 101 | 108 | 91.9 | 106 | 98.5 | 97.6 | 99 | 104 | 102 | 96.1 | 95.9 | 88 | 97.2 | 109 | 93.7 | 112 | 110 | > 10 | > 10 | > 10 | > 10 | > 10
10 | Cc1cc(C(=O)Nc2cccc(C(=O)Nc3cccc(C(F)(F)F)c3)c2)on1 | 0 | 0 | 0 | 0 | 1.5 | 99 | 99.3 | 94.8 | 104 | 104 | 100 | 99.4 | 96.7 | 97.3 | 103 | 96.2 | 96.6 | 89.5 | 101 | 105 | 93.7 | 99.8 | 99.7 | 102 | 99.8 | 103 | 92.3 | 109 | 92.9 | 79.1 | > 10 | > 10 | > 10 | > 10 | > 10
11 | Cc1nnsc1C(=O)Nc1ccc(-n2nc(C(F)(F)F)cc2C(F)(F)F)cc1 | 0 | 0 | 0.2 | 0 | 0 | 99.9 | 97.9 | 100 | 100 | 99.1 | 95.9 | 96.2 | 94.7 | 97.8 | 95.6 | 93.4 | 83.8 | 105 | 87.2 | 85.1 | 101 | 98.4 | 95.2 | 104 | 99.9 | 94.5 | 98.8 | 105 | 107 | 90.9 | > 10 | > 10 | > 10 | > 10 | > 10
12 | N#Cc1ccc(-c2ccc(S(=O)(=O)Nc3cccc(N)n3)cc2)cc1 | 0 | 0 | 0 | 0 | 1 | 101 | 97.2 | 101 | 99.4 | 95.1 | 97.4 | 96.3 | 95.9 | 93.9 | 90.8 | 87.9 | 95.5 | 95.4 | 96.7 | 91 | 99.6 | 104 | 98.9 | 107 | 104 | 100 | 98.3 | 104 | 97.6 | 79 | > 10 | > 10 | > 10 | > 10 | > 10
13 | Nc1nc2ccc(Cl)cc2c2nc(-c3ccco3)nn12 | 0 | 0.2 | 2.2 | 0.4 | 13.8 | 102 | 100 | 103 | 97.7 | 98.3 | 96.1 | 97.6 | 94.2 | 100 | 85.9 | 100 | 91.6 | 104 | 88.1 | 76.7 | 109 | 92.8 | 96.9 | 98.5 | 84.9 | 91.5 | 104 | 87.7 | 33.5 | 23.2 | > 10 | > 10 | > 10 | > 10 | 0.297
14 | O=C(O)c1cc2cccc([N+](=O)[O-])c2[nH]1 | 0 | 0 | 0 | 0 | 0 | 100 | 97.9 | 101 | 102 | 104 | 97.2 | 99.2 | 93.6 | 97.6 | 110 | 98 | 91.4 | 88.4 | 101 | 116 | 90.8 | 101 | 100 | 99.5 | 111 | 102 | 99.2 | 98.8 | 112 | 112 | > 10 | > 10 | > 10 | > 10 | > 10
15 | O=C(OCCN1CCCCC1)c1c[nH]c2ccccc12 | 0 | 0 | 0 | 0 | 0 | 96.8 | 104 | 97.6 | 102 | 94.3 | 98.7 | 95.6 | 95.4 | 95.8 | 104 | 99.3 | 97.2 | 95.3 | 96.3 | 99.4 | 106 | 104 | 97.7 | 103 | 91.3 | 102 | 93.8 | 98.2 | 106 | 94.4 | > 10 | > 10 | > 10 | > 10 | > 10

Source: the supplement of paper PMC13380429
